In PMC3185947 (British Journal of Cancer, 2011):
Where two headings read alike, the source gives them in different places. Marks after values point to notes of the source that are not given here.

How the values were obtained:
[1] = tested on: patients with previously treated advanced NSCLC; assay: Erlotinib-related toxicities (worst grade per patient), NCI CTC Version 2.0; type: in vivo, human
[2] = tested on: previously treated advanced non-small cell lung cancer (NSCLC)
Procedure: In the initial stage, we assessed the feasibility of intrapatient dose escalation from 150 mg per day to a maximal level of tolerable skin toxicity, which was defined as the TR. This objective was determined to be feasible if patients developed a TR in the absence of non-cutaneous dose-limiting toxicity (DLT). […] Skin toxicity was graded according to the following scale that was based on patient tolerability:
In the absence of both a TR and non-cutaneous DLT, the dose was increased in each patient to 200 mg per day, and then in 25 mg per day increments every 14 days. […] Toxicities were graded according to the National Cancer Institute Common Toxicity Criteria (NCI CTC), Version 2.0, except for skin toxicity.
Tumour assessments were performed using the Response Evaluation Criteria in Solid Tumours using computerised tomographic scanning or magnetic resonance imaging pretreatment and every 6–8 weeks during treatment ([Therasse et al, 2000]).

[3] = in vivo
Source text: (§1) PK parameters were estimated by non-compartmental methods (WinNonlin v.3.1, Pharsight Corp., Mountain View, CA, USA).

[4] = tested on: previously treated patients with non-small cell lung cancer (NSCLC); settings: cited from earlier work; for Median survival: ref Wacker et al, 2007
[5] = Plasma pharmacokinetics of erlotinib and OSI-420 (HPLC, non-compartmental); settings: erlotinib dose 425 mg m^−2, 1 patient;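 further: pharmacokinetic parameters derived by non-compartmental analysis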
Source text: as §1

[6] = erlotinib 225–275 mg (N=18), non-cutaneous dose limiting toxicity reported

## C#Cc1cccc(Nc2ncnc3cc(OCCOC)c(OCCOC)cc23)c1 [erlotinib]
[1]; erlotinib 225–275 mg (N=18)
  Creatinine, grade Any: 0 (0) n (%)
  Diarrhea, grade 3–4: 1 (6) n (%)
  Diarrhea, grade Any: 13 (72) n (%)
  Epistaxis, grade 3–4: 0 (0) n (%)
  Epistaxis, grade Any: 3 (17) n (%)
  Fatigue, grade Any: 6 (33) n (%)
  Headache, grade Any: 1 (6) n (%)
  Nausea, grade 3–4: 0 (0) n (%)
  Nausea, grade Any: 9 (50) n (%)
  Paronychia, grade 3–4: 0 (0) n (%)
  Paronychia, grade Any: 3 (17) n (%)
  Skin fissures, grade 3–4: 1 (6) n (%)
  Skin fissures, grade Any: 2 (11) n (%)
  Stomatitis, grade 3–4: 0 (0) n (%)
  Stomatitis, grade Any: 6 (33) n (%)
  Vomiting, grade 3–4: 0 (0) n (%)
  Vomiting, grade Any: 5 (28) n (%)
[1]; [6]
  Anorexia, grade 3–4: 1 (6) ^a n (%)
  Fatigue, grade 3–4: 2 (11) ^a n (%)
  Headache, grade 3–4: 1 (6) ^a n (%)
[1]; erlotinib ⩾300 mg (N=7)
  Alopecia, grade 3–4: 0 (0) n (%)
  Alopecia, grade Any: 2 (29) n (%)
  Anorexia, grade 3–4: 0 (0) n (%)
  Anorexia, grade Any: 3 (43) n (%)
  Creatinine, grade 3–4: 0 (0) n (%)
  Creatinine, grade Any: 0 (0) n (%)
  Diarrhea, grade 3–4: 0 (0) n (%)
  Diarrhea, grade Any: 7 (100) n (%)
  Epistaxis, grade 3–4: 0 (0) n (%)
  Epistaxis, grade Any: 2 (29) n (%)
  Fatigue, grade 3–4: 0 (0) n (%)
  Fatigue, grade Any: 4 (57) n (%)
  Headache, grade 3–4: 0 (0) n (%)
  Headache, grade Any: 0 (0) n (%)
  Nausea, grade 3–4: 0 (0) n (%)
  Nausea, grade Any: 5 (71) n (%)
  Paronychia, grade Any: 2 (29) n (%)
  Skin fissures, grade 3–4: 0 (0) n (%)
  Skin fissures, grade Any: 2 (29) n (%)
  Stomatitis, grade 3–4: 0 (0) n (%)
  Stomatitis, grade Any: 1 (14) n (%)
  Vomiting, grade 3–4: 0 (0) n (%)
  Vomiting, grade Any: 3 (43) n (%)
[1]; erlotinib ⩾300 mg (N=7), non-cutaneous dose limiting toxicity reported
  Paronychia, grade 3–4: 1 (14) ^a n (%)
[1]; human, in vivo
  Non-cutaneous DLT: grade 3 anorexia: one
  Non-cutaneous DLT: grade 3 creatinine elevation: one
  Non-cutaneous DLT: grade 3 fatigue: three
  Non-cutaneous DLT: grade 3 headache: one
  Non-cutaneous DLT: grade 3 paronychia: one
  Patients who discontinued treatment due to protracted grade 3 anorexia and grade 2 nausea: One
[1]; of 42 patients
  Patients who experienced non-cutaneous DLT: Seven
[2]; All patients
  Disease control (CR+PR+SD): No. of patients with CR+PR+s.d./total no. of patients: 24/42
  Disease control (CR+PR+SD): Response rate (95% CI): 57.1 (41.0, 72.3)
  Objective responses (CR+PR): No. of patients with PR+CR/total no. of patients: 5/42
  Objective responses (CR+PR): Response rate (95% CI): 11.9 (4.0, 25.6)
[2]; Target rash feasible
  Disease control (CR+PR+SD): No. of patients with CR+PR+s.d./total no. of patients: 15/24
  Disease control (CR+PR+SD): Response rate (95% CI): 62.5 (40.6, 81.2)
  Objective responses (CR+PR): No. of patients with PR+CR/total no. of patients: 5/24
  Objective responses (CR+PR): Response rate (95% CI): 20.8 (7.1, 42.2)
[2]; Target rash not feasible
  Disease control (CR+PR+SD): No. of patients with CR+PR+s.d./total no. of patients: 9/18
  Disease control (CR+PR+SD): Response rate (95% CI): 50.0 (26.0, 74.0)
  Objective responses (CR+PR): No. of patients with PR+CR/total no. of patients: 0/18
  Objective responses (CR+PR): Response rate (95% CI): 0.0 (N/A)
[2]; all patients, 95% CI: 1.61–4.14
  Median progression-free survival (PFS): 2.3 months
[2]; five of 42 patients, 95% CI: 4.0–25.6
  Patients with a partial response (PR): 12%
[2]; five patients with PR, range, 5–76
  Median time to initial response: 6 weeks
[2]; nineteen of 42 patients
  Patients with stable disease: 45%
[2]; patients who did not experience a TR, 95% CI: 1.54, 4.14
  Median PFS: 1.9 months
[2]; patients who experienced a TR, 95% CI: 1.61, 6.97
  Median PFS: 3.5 months
[2]; patients who had TR
  Reduction in the risk of disease progression or death: 49%
[2]; patients with PR as best response, range, 5.2 to 66+
  PFS: 12 months
[2]; patients with SD as best response, range, 1.2–14.0
  PFS: 4.7 months
[2]; patients with progressive disease as best response, range, 1.2–1.9
  PFS: 1.4 months
[3]; human
  Relationships between dose and both AUC0–24 and Cmax (Spearman rank correlation): did not reveal any significant deviation from dose proportionality
[3]
  Interpatient and intrapatient variability of PK: High
[4]; BR.21 study, 95% CI: 1.9–2.9 months, ref Shepherd et al, 2005
  Median PFS: 2.2 months
[4]; BR.21 study, 95% CI: 6.4–12%, ref Shepherd et al, 2005
  ORR: 8.9%
[4]; erlotinib-treated patients who did not experience skin toxicity
  Median survival: 3 months
[4]; erlotinib-treated patients with grade 1 skin toxicity
  Median survival: 7 months
[4]; erlotinib-treated patients with grade 2/3 skin toxicity
  Median survival: 11 months
[5]
  Erlotinib Tmax: 4.0 h
